From US9579376B2 (priority 2009, dated 2017)

Key:
CD8+ T cells = assay: IFN-γ ELISpot deconvolution and follow-up ICS to identify single peptide epitopes; type: cell-based, human; conditions: for antigenicity for persons with HLA A*0201, A*0202 or other HLA-A2 subtypes: Example 1, T-cells from infected patients; for # SUBJECTS: number of HSV-2 seropositive subjects (55 sampled) with CD8+ T cell response to the peptide, ELISpot and follow-up ICS
Description: ELISPOT technology was used to further identify individual peptides.
High throughput intracellular cytokine staining-flow cytometry (ICS) was used to detect IFN-γ, IL-2, TNF-α expression in CD8+ T cells following 6 h exposure of PBMC with HSV-2 peptides (or control antigen) in the presence of co-stimulatory antibodies (α-CD28/α-CD49d) and Brefeldin A. Cytokine responses to peptide antigen were scored positive if they differed from the negative control (p<0.02; Fisher's one-sided test); this cutoff was defined during trial and error validation studies with HSV-2 seronegative subjects and allows for a 5% false positive error rate. Peptide pools giving positive responses by ICS in HSV-2 seropositive subjects were deconvoluted using IFN-γ ELISpot to identify the causative peptide. Deconvolution cutoff was determined as at least 11 spots per well and 3-fold higher spots than DMSO (negative) control.

[1] = tested on: HSV-2 specific CD8+ T cells; assay: CFSE proliferation of peptide exposed PBMC (cell division index); type: cell-based, human; conditions: CFSE stained PBMC; CDI>2 cut-off for proliferation positivity
Source text: To evaluate the proliferative capacity of HSV-2 specific CD8+ T cells, we utilized CFSE to stain PBMC prior to epitope specific stimulation. […] CD8+ T cells that recognized UL4945-49 did proliferate (CDI=8.7), but CDI values were below threshold for peptides UL4981-96, UL4993-108 and UL49129-143 (respective CDI=1.8, 1.4 and 1.6). Since T cells specific for UL4945-49 are more abundant that those specific for the other epitopes, the ability of these cells to proliferate likely reflects the epitope dominance observed within UL49.

[2] = tested on: HSV-2 specific CD8+ T cells; conditions: one individual with four HLA-B07 restricted UL49 epitopes; versus other tested epitopes
Description: Identified single peptides were used to individually stimulate CD8+ T cells in subjects with multiple epitopes. These responses were analyzed by ICS to determine the polyfunctional profiles of HSV-2 specific T cells. Single peptides were also used to assess degranulation; the presence of lytic proteins granzyme B and perforin, in HSV-2 specific CD8+ T cells, was determined by flow cytometry. The proliferative capacities of HSV-2 specific T cells were determined by pre-staining peptide exposed PBMC with CFSE. A cell division index (CDI)>2 was used as a cut-off for proliferation positivity.
Single peptides identified during this study were used to activate epitope specific CD8+ T cells. Antigen specific CD8+ T cells were identified using a gating strategy. […] The polyfunctional profiles of responding cells, with reference to the expression of IFN-γ, IL2, and TNF-α, and the mobilization of CD107a were determined.

Row | Substance | # SUBJECTS (CD8+ T cells) | also measured
1 | 9 mer: 9 amino acid minimal epitope at amino acids 372-380 of HSV-2 UL25 (FLWEDQTLL; herpes simplex virus 2) | – | antigenicity for persons with HLA A*0201, A*0202 or other HLA-A2 subtypes (CD8+ T cells): repeatedly and strongly positive
2 | AFEDRSYPAVFYLLQ (herpes simplex virus 2) | 1 | –
3 | AQREAAGVYDAVRTW (herpes simplex virus 2) | 2 | –
4 | ARPRRSASVAGSHGPG (herpes simplex virus 2) | 2 | CDI (cell division index) [1]: 1.8
5 | CPLLIFDRTRKFVLA | 1 | –
6 | DFIWTGNPRTAPRSL | 2 | –
7 | DMETGHIGAYVVLVD | 1 | –
8 | DRLDNRLQLGMLIPG (herpes simplex virus 2) | 1 | –
9 | EAGLMDAATPPARPPA | 1 | –
10 | FGGHYMESVFQMYTR (herpes simplex virus 2) | 1 | –
11 | GHIGAYVVLVDQTGN | 1 | –
12 | GVLVHLRIRTREASF (herpes simplex virus 2) | 1 | –
13 | HGPGPARAPPPPGGPV (herpes simplex virus 2) | 1 | CDI (cell division index) [1]: 1.4
14 | HNLFLWEDQTLLRAT | 5 | antigenicity for persons with HLA A*0201, A*0202 or other HLA-A2 subtypes (CD8+ T cells): repeatedly and strongly positive
15 | KNLLORANELVNPDA: 15-mer epitope, amino acids 249-263 of HSV-2 UL49 | 1 | –
16 | KTSNALCVRGARPFS (herpes simplex virus 2) | 1 | –
17 | LHPFCIPCMKTWIPL | 1 | –
18 | LMLEYFCRCAREESK (herpes simplex virus 2) | 1 | –
19 | LPIAGVSSVVALAPY | 1 | –
20 | PKASATPATDPARGR (herpes simplex virus 2) | 1 | CDI (cell division index) [1]: 1.6
21 | PMRARPRGEVRFLHY | 6 | CD107a positive cells among responding cells [2]: less CD107a positive cells relative to IFN-γ+ cells; cytokine levels in responding cells [2]: higher levels of IFN-γ; monofunctional cells among responding cells [2]: less monofunctional cells; response in Elispot and ICS assays (CD8+ T cells; one individual with four HLA-B07 restricted epitopes within UL49, versus other UL49 epitopes): largest detectable response; CDI (cell division index) [1]: 8.7
22 | PVGNMLFDQGTLVGA | 1 | –
23 | RAAAPAWSRRTLLPE | 3 | –
24 | RLGPADRRFVALSGS (herpes simplex virus 2) | 3 | –
25 | SMSLADFHGEEFEKL (herpes simplex virus 2) | 1 | –
